Earlier results in US11827443B2, “Aerosol foam dispenser” (The Procter & Gamble Company, priority 2021, dated 2023).

Conditions: in water at 20° C.

SMILES | Water solubility at 20° C. (weight percent)
CC(C)C [Isobutane] | <0.01% weight percent
COC [Dimethyl ether] | 7% weight percent
CCCC [Butane] | <0.01% weight percent
[N-]=[N+]=O [Nitrous oxide] | 0.12 weight percent
[He] [Helium] | <0.01 weight percent
O=C=O [Carbon dioxide] | 0.8% weight percent
